Measurements reported in US5968956A, “Substituted piperidine derivative and medicine comprising the same” (SS Pharmaceutical Co., Ltd., priority 1995, dated 1999).
Structures can show the parent of a compound that is named as a salt.

Tests used:
[1] = tested on: bladder specimens enucleated from rats; assay: Anticholinergic effect on bladder specimens enucleated from rats (contraction caused by acetylcholine); assay type: cell-based, rat (male S. D.); settings: Rattus norvegicus; inhibition of contraction caused by acetylcholine (10^-5 M); Tyrode's solution 32° C.; agent applied 5 minutes before
Procedure: Anticholinergic effect on bladder specimens enucleated from rats:
(§1) Male S. D. rats weighing 220-450 g were exsanguinated to death to enucleate their bladders, thereby preparing vertically split specimens (3-5 mm wide by 10-15 mm long) with each triangular part removed therefrom. Each of the specimens was suspended in a Magnus bath filled with a Tyrode's solution (32° C.) aerated by a mixed gas (95% O2, 5% CO2) with a load of 0.5 g applied thereto. The response of the specimen was recorded in terms of isometric contraction through a tension transducer. After the stability of the specimen was attained, an effect on contraction caused by acetylcholine (10^-5 M) was investigated. Incidentally, agents to be tested were applied to the individual specimens in advance for 5 minutes before the test to investigate their effects.

[2] = tested on: bladder specimens enucleated from rats; assay: Calcium antagonism against bladder specimens enucleated from rats (contraction caused by calcium chloride); assay type: cell-based, rat (male S. D.); settings: Rattus norvegicus; inhibition of contraction caused by 10^-3 M calcium chloride after Ca removal with 1 mM EDTA; cumulative application; corrected for spontaneous relaxation
Procedure: as §1
Calcium antagonism against bladder specimens enucleated from rats:
After removal of calcium ion in specimens prepared in accordance with the testing method of Test Example 1 by adding 1 mM EDTA, 10^-3 M calcium chloride was applied to the specimens. After contraction caused by calcium chloride was stable, each of agents to be tested was applied cumulatively to the specimen. Assuming that the contraction upon the first application of the test agent was 100%, a value obtained by subtracting a spontaneous relaxation rage of a specimen, to which no agent was applied, from an inhibiting rate upon the application of the agent of varied concentrations was regarded as a contraction inhibiting rate.

Compound	IC50 [1] [nM]	IC30 [2] [nM]
CC(C)C(O)(C(=O)NC1CCN(Cc2ccccc2)CC1)c1cccc(Cl)c1 (stereo not shown) [Compound 34]	280	
Cc1ccc(C(O)(C(=O)NC2CCN(Cc3ccccc3)CC2)C(C)C)cc1 (stereo not shown) [Compound 56]	168	
COc1ccc(C(O)(C(=O)NC2CCN(Cc3ccccc3)CC2)C2CCCC2)cc1 (stereo not shown) [Compound 15]	130	
O=C(NC1CCN(Cc2ccccc2)CC1)C(O)(c1ccccc1)C1CC1 (stereo not shown) [Compound 3]	27	26600
CC(C)C(O)(C(=O)NC1CCN(Cc2ccccc2)CC1)c1ccccc1 (stereo not shown) [Compound 23]	66	
CCCOC(C(=O)OC1CCN(C)CC1)(c1ccccc1)c1ccccc1 [Propiverine hydrochloride, reference compound]	784	12100
O=C(NC1CCN(Cc2ccccc2)CC1)C(O)(c1ccccn1)C1CCCC1 (stereo not shown) [Compound 49]	6.5	
COc1cccc(C(O)(C(=O)NC2CCN(Cc3ccccc3)CC2)C2CCCC2)c1 (stereo not shown) [Compound 29]	850	
O=C(NC1CCN(Cc2ccccc2)CC1)C(O)(c1ccccc1)C1CCCCC1 (stereo not shown) [Compound 1]	32	2660
O=C(NC1CCN(Cc2ccccc2)CC1)C(O)(c1ccccc1)C1CCCC1 (stereo not shown) [Compound 4]	33.6	2850
O=C(NC1CCN(Cc2ccccc2)CC1)C(O)(c1cccc(Cl)c1)C1CCCC1 (stereo not shown) [Compound 35]	200	
CN1CCC(NC(=O)C(O)(c2ccccc2)C2CCCCC2)CC1 (stereo not shown) [Compound 2]	434	
